From patent US20260306632A1, “NANOPARTICLES FOR PHOTOIMMUNE THERAPY COMPRISING PHOTOSENSITIZER AND ADJUVANT, AND USAGE THEREOF” (KOREA INSTITUTE OF SCIENCE AND TECHNOLOGY, priority 2022, published 2026)
Where two headings read alike, the source gives them in different places.

Test: Solubility of free imiquimod and imiquimod-oleic acid complex (ImO) in water
Assay type: physicochemical
Settings: for solubility: highest/lowest concentration examined
Description: Nanoparticles (ImiMB) were synthesized using a methylene blue-oleic acid complex (MBO) and Pluronic F-127 with imiquimod in a free imiquimod state without modifying imiquimod with oleic acid. […] Subsequently, 1 ml of distilled water (DW) was used instead of ImO complex solution in the rehydration step of the thin film (FIG. 2).
Therefore, in the present invention, imiquimod was modified with an organic acid to form a cationic adjuvant-organic acid complex for solubility improvement and high-content loading, and then nanoparticles were prepared using the cationic adjuvant-organic acid complex.

solubility (read-out: solubility) [µg/mL] | solubility [µg/mL] | Compound | solubility in water (in words)
< 100 | – | CC(C)Cn1cnc2c(N)nc3ccccc3c21 [free imiquimod, imiquimod] | not soluble in water
– | ≥ 5000 | imiquimod-oleic acid complex | particle formation occurred well even at a high concentration of 5.0 mg/ml, maintaining a transparent solution form
